Values joined by “and” are separate entries in the source; they are usually repeats but may differ in a detail not shown here. Identical values can stand only once. Like-named read-outs stand apart in the source and are kept apart here.
Biological target: T1, DrOTOP1 (Danio rerio, UniProt Q7ZWK8)
T1 construct: A previously generated codon-optimized full-length DrOTOP1[8]; (UniProt: Q7ZWK8) construct; expressed in transfected cells; host or cells: HEK-293 (CRL-1573, ATCC)
T1 sequence (Q7ZWK8 1-586): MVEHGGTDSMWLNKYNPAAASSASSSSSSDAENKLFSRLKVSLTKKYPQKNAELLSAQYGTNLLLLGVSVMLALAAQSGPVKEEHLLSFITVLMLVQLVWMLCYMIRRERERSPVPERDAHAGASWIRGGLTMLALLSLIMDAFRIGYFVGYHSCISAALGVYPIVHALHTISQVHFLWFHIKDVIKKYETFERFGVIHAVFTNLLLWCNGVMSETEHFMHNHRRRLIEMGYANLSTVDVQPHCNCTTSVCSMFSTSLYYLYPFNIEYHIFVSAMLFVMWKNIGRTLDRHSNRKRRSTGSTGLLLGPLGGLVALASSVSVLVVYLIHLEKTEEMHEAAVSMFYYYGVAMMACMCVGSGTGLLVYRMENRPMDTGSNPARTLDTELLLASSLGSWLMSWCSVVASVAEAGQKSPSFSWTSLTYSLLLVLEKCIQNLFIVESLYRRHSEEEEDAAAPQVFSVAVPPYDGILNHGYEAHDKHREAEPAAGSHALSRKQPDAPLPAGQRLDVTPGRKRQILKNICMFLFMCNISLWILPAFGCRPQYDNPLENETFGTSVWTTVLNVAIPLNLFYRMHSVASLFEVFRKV
Test: Whole-cell patch-clamp, inhibition of acid-evoked currents, WT DrOTOP1 expressed in HEK-293 cells
Assay type: cell-based, zebrafish (Danio rerio)
Design: key to inhibition of acid-evoked current, mean (Mean 1): % inhibition = ((I2peak-I1)/I2peak)*100
Conditions: for inhibition at 200 µM: read-out: Inhibition of currents
From the text: The 50 molecules identified were individually tested by whole-cell patch-clamp electrophysiology for effects on DrOTOP1 expressed in human embryonic kidney (HEK)−293 cells. […] This approach enabled us to observe the on- and off-responses of each compound. To quantify the effect of each compound, we compared the current magnitude during compound application immediately before wash-off, to the peak inward current following its removal (Supplementary Fig. 2A).
HEK-293 cells (CRL-1573, ATCC) were cultured in DMEM (Thermofisher 11995073) containing 10% fetal bovine serum (Life Technology 16000044) and Penicillin-Streptomycin (100 I.U./mL) and (100 µg/mL), respectively. Cells were transfected with WT DrOTOP1 or mutant DrOTOP1 channels in 35 mm petri dishes, with ~ 500 ng DNA and 2 μL TransIT-LT1 transfection reagent (Mirus Bio Corporation, Cat # MIR2300) following the manufacturer’s protocol. All constructs were subcloned into a pcDNA3.1 vector that adds an N-terminal fusion tag consisting of an octahistidine tag followed by eGFP, a Gly-Thr-Gly-Thr linker and a 3C protease cleavage site ([…]) followed by WT DrOTOP1, WT mOTOP1, WT hOTOP1, or mutated DrOTOP1. Point mutations were generated via In-Fusion Cloning (Takara) using single-stranded DNA primers generated through IDT and sequence confirmed by Sanger sequencing (GeneWiz).
Whole-cell patch-clamp recording was performed as previously described[6],[22],[25]. Recordings were made with an Axopatch 200B amplifier, digitized with a Digidata 1322a 16-bit data acquisition system, acquired with pClamp 8.2 and analyzed with Clampfit 10 (Molecular Devices). Recordings were sampled at 5 kHz and filtered at 1 kHz. Patch Pipettes with resistance of […] were fabricated from borosilicate glass, and only recordings with a giga-Ohm seal were used in analysis. Membrane potential was held at −80 mV for the duration of recordings. At the beginning of recordings and between, cells were washed with Tyrode’s solution (see below). Once a giga-Ohm seal was reached, cells were lifted and placed in front of microcapillary tubes controlled by a Fast-Step perfusion system (Warner Instruments) so that extracellular solutions could be rapidly exchanged during each experiment.
Standard Tyrode’s solution consisted of 145 mM NaCl, 5 mM KCl, MgCl2, 2 mM CaCl2, 20 mM D-Glucose, and 10 mM HEPES (for pH 7.4). All other extracellular patch-clamp solutions contained 160 mM NMDG-Cl, 2 mM CaCl2, and the following buffers: 10 mM HEPES (for pH 7.4), 10 mM MES (for pH 6.5-5.5), 10 mM CHES for pH 10, and 10 mM HomoPIPES for (pH 5.0). pH adjusted with HCl. […] The pipette contained intracellular solution made up of 120 mM Cs-aspartate, 15 mM CsCl, 2 mM Mg-ATP, 5 mM EGTA, 2.4 mM CaCl2 (100 nM free Ca^2+), and 10 mM HEPES with a pH of 7.3. All extracellular solution osmolarity was adjusted to 300 mOsm and intracellular osmolarity was adjusted to 290 mOsm.
All data are presented as mean ± SEM unless otherwise noted, and each data point represents an independent replicant. Inhibition of compounds was quantified as ((I2peak-I1)/(I2peak))*100, where I1 is the current immediately before wash-off and I2peak is the maximum recovered current (Supplementary Fig. 2). Hill coefficients were determined by the following equation: Y = Bmax*X^h/(Kd^h + X^h).

[1] = 10 µM, pH 5, WT DrOTOP1, single cells
[2] = 10 µM, pH 6, WT DrOTOP1, single cells
[3] = 30 µM, pH 5, WT DrOTOP1, single cells
[4] = 30 µM, pH 6, WT DrOTOP1, single cells
[5] = 100 µM, pH 5, WT DrOTOP1, single cells
[6] = 100 µM, pH 6, WT DrOTOP1, single cells
[7] = 200 µM, pH 5.5, WT DrOTOP1, dose-response, single cells
[8] = 300 µM, pH 5.5, WT DrOTOP1, single cells
[9] = HEK293, pH 5, 30 µM, pH 5, WT DrOTOP1, single cells
[10] = HEK293, pH 5.5, 200 µM, pH 5.5, WT DrOTOP1, dose-response, single cells
[11] = HEK293, pH 5.5, 300 µM, pH 5.5, WT DrOTOP1, single cells
[12] = HEK293, pH 6, 10 µM, pH 6, WT DrOTOP1, single cells
[13] = HEK293, pH 6, 30 µM, pH 6, WT DrOTOP1, single cells
[14] = HEK293, pH 6, 100 µM, pH 6, WT DrOTOP1, single cells

Structure (SMILES)	Inhibition of currents [1]	Inhibition of currents [2]	Inhibition of currents [3]	Inhibition of currents [4]	Inhibition of currents [5]	Inhibition of currents [6]	Inhibition of currents [7]	Inhibition of currents [8]	inhibition at 30 µM [9] [%]	inhibition at 200 µM [10] [%]	inhibition at 300 µM [11] [%]	inhibition at 10 µM [12] [%]	inhibition at 30 µM [13] [%]	inhibition at 100 µM [14] [%]	Hill coefficient (pH 5.0, WT DrOTOP1)	IC50 (pH 5.0, WT DrOTOP1) [µM]	Hill coefficient (pH 5.5, WT DrOTOP1)	IC50 (pH 5.5, WT DrOTOP1)	Hill coefficient (pH 6.0, WT DrOTOP1)	IC50 (pH 6.0, WT DrOTOP1)	other results
C=C(C)COc1ccccc1NC(=O)c1nc[nH]c1C [C2.2]	57.3692% and 44.5762% and 37.4476% and 30.9804% and 33.0274%	62.6907% and 69.8462% and 72.5518% and 60.5453%	79.1499% and 75.7339% and 78.9474%	89.6104% and 92.0062%	98.8642% and 100.372%	101.656% and 100.935% and 99.4036%	99.9505% and 99.4475% and 98.9119%	99.8351% and 99.4122% and 98.63%	79.1	100	99.9	62.3	80.7	100	1.53	12.6	1.52 and 1.5	6.67 µM	1.25	5.99 µM and 5.97 µM	Inhibition of currents (0.1 µM, pH 5.5, WT DrOTOP1, single cells): 2.61% and 0.5081% and 0.05491%; Inhibition of currents (0.3 µM, pH 5.5, WT DrOTOP1, single cells): 3.209% and 3.843%; Inhibition of currents (1 µM, pH 5, WT DrOTOP1, single cells): 3.034% and 6.744% and 2.835%; Inhibition of currents (1 µM, pH 5.5, WT DrOTOP1, single cells): 3.496% and 5.882% and 11.0667%; Inhibition of currents (1 µM, pH 6, WT DrOTOP1, single cells): 7.93% and 17.0523% and 15.485%; Inhibition of currents (3 µM, pH 5.5, WT DrOTOP1, single cells): 21.7626% and 20.6603%; Inhibition of currents (30 µM, pH 5.5, WT DrOTOP1, single cells): 91.4446% and 86.3672% and 87.3001% and 85.4679%; Inhibition of pH 5.5-induced currents, screen 2 (200 µM compound, HEK-293 cells expressing DrOTOP1, Vm -80 mV, values of single cells, FDA 1-3 = FDA-approved drugs): fully blocked; inhibition at 100 µM (HEK293, pH 5, 100 µM, pH 5, WT DrOTOP1, single cells): 99.1%; inhibition at 0.3 µM (HEK293, pH 5.5, 0.3 µM, pH 5.5, WT DrOTOP1, single cells): 2.64%; inhibition at 3 µM (HEK293, pH 5.5, 3 µM, pH 5.5, WT DrOTOP1, single cells): 17%; inhibition at 30 µM (HEK293, pH 5.5, 30 µM, pH 5.5, WT DrOTOP1, single cells): 88.3%; inhibition at 100 µM (HEK293, pH 5.5, 100 µM, pH 5.5, WT DrOTOP1, single cells): 99.4%; Mean, Fig 5N (WT + C2.2, n=8): 31.97; inhibition of acid-evoked current, mean (Mean 1) (WT DrOTOP1, Supp. Fig 5E stats): 99.31; inhibition of acid-evoked current, mean (Mean 1) (WT DrOTOP1, Supp. Fig 5F stats): 65.72
O=C(/C(=N\O)c1ccccc1)c1ccccc1 [C11, benzil monoxime]	4.424% and 3.103%	7.181% and 5.566% and 5.627%	24.2292% and 16.076%	21.9002% and 19.6399% and 27.9569%	50.6107% and 59.4827% and 56.6039% and 73.4375%	58.9165% and 51.9948% and 54.7438% and 59.958%	92.006% and 94.7798% and 86.5734%	100.665% and 98.5727% and 97.2447%	16.2	96.6	102	5.56	19	68.6	1.88	75.2	2.2 and 2.21	76 µM and 76.3 µM	1.67	71.5 µM	Inhibition of currents (10 µM, pH 5.5, WT DrOTOP1, single cells or mean): 3.913% and 2.872% and 1.269% and 1.559%; Inhibition of pH 5.5-induced currents, screen 1 (200 µM compound, HEK-293 cells expressing DrOTOP1, Vm -80 mV, values of single cells): nearly fully inhibited; Inhibition of currents (200 µM, pH 5, WT DrOTOP1, single cells): 88.3451% and 83.853%; Inhibition of currents (200 µM, pH 6, WT DrOTOP1, single cells): 84.9844% and 81.9304% and 93.4599%; Inhibition of currents (300 µM, pH 5, WT DrOTOP1, single cells): 96.0707% and 96.7562%; Inhibition of currents (300 µM, pH 6, WT DrOTOP1, single cells): 97.5242% and 103.48%; inhibition at 10 µM (HEK293, pH 5, 10 µM, pH 5, WT DrOTOP1, single cells): 3.81%; inhibition at 200 µM (HEK293, pH 5, 200 µM, pH 5, WT DrOTOP1, single cells): 80.8%; inhibition at 300 µM (HEK293, pH 5, 300 µM, pH 5, WT DrOTOP1, single cells): 101%; inhibition at 200 µM (HEK293, pH 6, 200 µM, pH 6, WT DrOTOP1, single cells): 89.5%; inhibition at 300 µM (HEK293, pH 6, 300 µM, pH 6, WT DrOTOP1, single cells): 99.8%

Reference: paper PMC12549899 (Nature Communications, 2025)
